# Source: article PMC4946967 (ACS chemical biology, 2016)
# Where a chain is given by its changes, count along the chain named. Entries after “also recorded” stand apart in the source; their conditions may differ.
# Assays:
# [1] = test system: Flp-In 293 T-REx cells expressing RNR-α-Flag
# [2] = test system: Flp-In 293 T-REx cells expressing D57N-α-Flag
# [3] = target: T1, mutant (D57N)-mouse(m)RNR-α (Mus musculus, UniProt P07742, D57N); assay type: cell-based; conditions: 3 h treatment; 5, 50, 300 μM ClF, ClA, FlUMP; D57N-mRNR-α 3T3 cells
# T1 sequence (P07742 1-792 D57N): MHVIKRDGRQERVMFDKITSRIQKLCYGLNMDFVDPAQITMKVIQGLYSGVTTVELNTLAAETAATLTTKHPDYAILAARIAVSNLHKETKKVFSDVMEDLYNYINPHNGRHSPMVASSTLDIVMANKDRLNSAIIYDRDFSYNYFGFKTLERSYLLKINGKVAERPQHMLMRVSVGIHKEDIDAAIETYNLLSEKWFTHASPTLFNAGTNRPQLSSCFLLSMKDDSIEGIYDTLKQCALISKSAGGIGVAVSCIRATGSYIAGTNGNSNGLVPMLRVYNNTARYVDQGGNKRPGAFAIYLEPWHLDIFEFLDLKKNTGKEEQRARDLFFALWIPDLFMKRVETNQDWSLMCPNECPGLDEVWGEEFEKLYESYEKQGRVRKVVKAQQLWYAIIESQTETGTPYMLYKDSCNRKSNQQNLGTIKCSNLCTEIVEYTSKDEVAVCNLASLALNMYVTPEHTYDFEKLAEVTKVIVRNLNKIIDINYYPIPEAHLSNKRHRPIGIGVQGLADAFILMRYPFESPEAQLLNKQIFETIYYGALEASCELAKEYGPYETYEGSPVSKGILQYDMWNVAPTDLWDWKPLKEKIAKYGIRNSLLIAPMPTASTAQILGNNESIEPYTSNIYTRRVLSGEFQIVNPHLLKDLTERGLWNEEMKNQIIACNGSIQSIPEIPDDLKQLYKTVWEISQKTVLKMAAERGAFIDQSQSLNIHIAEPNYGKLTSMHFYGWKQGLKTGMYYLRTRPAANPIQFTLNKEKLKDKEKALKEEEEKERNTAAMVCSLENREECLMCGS
# [4] = test system: E. coli RNR; conditions: cited from earlier work
# [5] = target: T2, RNR-α (Homo sapiens, UniProt P23921); assay: RNR-α-specific CDP/ATP-reductase activity inhibition assay; assay type: biochemical
# T2 sequence (P23921 1-792): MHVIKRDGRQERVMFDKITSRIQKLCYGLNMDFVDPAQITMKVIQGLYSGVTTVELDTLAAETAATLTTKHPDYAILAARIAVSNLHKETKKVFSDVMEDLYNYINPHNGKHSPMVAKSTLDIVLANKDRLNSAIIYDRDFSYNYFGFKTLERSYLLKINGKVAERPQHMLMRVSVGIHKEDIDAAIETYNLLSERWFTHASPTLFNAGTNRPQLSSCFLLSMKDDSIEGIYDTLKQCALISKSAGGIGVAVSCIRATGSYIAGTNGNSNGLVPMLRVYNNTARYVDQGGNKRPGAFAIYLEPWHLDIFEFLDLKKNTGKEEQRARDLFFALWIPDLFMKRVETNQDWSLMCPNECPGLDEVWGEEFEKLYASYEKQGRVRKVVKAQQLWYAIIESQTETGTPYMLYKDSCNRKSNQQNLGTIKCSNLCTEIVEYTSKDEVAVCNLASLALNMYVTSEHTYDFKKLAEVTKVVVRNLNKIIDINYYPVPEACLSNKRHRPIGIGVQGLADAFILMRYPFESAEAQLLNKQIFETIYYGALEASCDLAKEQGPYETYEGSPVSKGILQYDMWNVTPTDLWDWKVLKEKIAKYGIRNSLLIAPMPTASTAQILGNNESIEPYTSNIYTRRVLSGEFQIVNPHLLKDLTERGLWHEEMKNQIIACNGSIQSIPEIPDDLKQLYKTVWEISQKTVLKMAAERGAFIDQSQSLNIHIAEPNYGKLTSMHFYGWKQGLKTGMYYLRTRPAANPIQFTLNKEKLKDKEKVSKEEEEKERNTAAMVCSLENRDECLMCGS
# [6] = target: T3, D57N-human RNR-α mutant (Homo sapiens, UniProt P23921, D57N); conditions: cited from earlier work
# T3 sequence (P23921 1-792 D57N): T2 sequence (P23921 1-792) with D57N
# [7] = target: T2, RNR-α; conditions: cited from earlier work
smiles,measurement,setting,value
"Nc1nc(Cl)nc2c1ncn2[C@@H]1O[C@H](CO)[C@@H](O)[C@@H]1F [ClF, clofarabine]",effect of RNR-α overexpression on cytotoxicity relative to noninduced cells,[1],small effect on the EC50
same,protection against cytotoxicity upon tet induction relative to noninduced,[2],> 20 fold
same,RNR reductase activity in D57N-α-expressing lines after drug treatment,[3],resistance
"Nc1nc(Cl)nc2c1ncn2[C@@H]1O[C@H](COP(=O)(O)OP(=O)(O)O)[C@@H](O)[C@@H]1F [ClFDP, clofarabine diphosphate]",inhibition of E. coli RNR,[4],failed to inhibit
same,higher affinity than ClADP and FlUDP,[5],10–100 fold
same,inhibition of D57N-α-specific RNR activity,[6],can inhibit; also recorded: able to inhibit both wt- and D57N-α with similar potency
Nc1ccn([C@@H]2O[C@H](COP(=O)(O)OP(=O)(O)OP(=O)(O)O)[C@@H](O)C2(F)F)c(=O)n1 [F2CTP],effect on RNR-α oligomeric state or holoenzyme activity,[7],no effect
